Results reported in patent publication US7585460B2, “Method for inhibiting the biological acidification of water in contact with materials containing sulfur” (ENI S.p.A., priority 2003, dated 2009).

Tests used:
Assay type in all cases: cell-based, Thiobacillus
[1] = tested on: Thiobacilli; assay: Acidification of water on sulfur block with salt englobed in surface sulfur layer, covered with sand (Example 10); conditions: 3 mm sulfur layer containing sodium chloride (10%), 2 cm sand
Procedure: Two blocks of elemental sulfur with an upper surface of approximately 2500 cm^2 (8.5 Kg of sulfur) are positioned in two containers. The surface of one block is then covered with a fine layer (3 mm) of liquid sulfur containing sodium chloride (10%). The upper surface of each block of sulfur is wetted with 250 ml of a bacterial suspension of Thiobacilli containing over 10^8 bacteria per milliliter. The two blocks are subsequently covered with a 2 cm layer of sand and wetted at regular intervals of time with rainwater until the layer of sand is saturated and the rilling of excess water is produced with respect to the saturation. Rainwater is added every month in a quantity equivalent to a fall of 100 mm.
The containers are exposed to the outside environment for three months. At the end of this period, the pH of the water in contact with the sulfur in the two containers, is measured.

[2] = tested on: Thiobacilli; assay: Acidification of rainwater in contact with solid sulfur test samples colonized by Thiobacilli (Example 5); conditions: 33 g/l NaCl
Procedure: The following experimental systems were prepared, using test samples of solid sulfur (discoid tables each of about 13 g). • System A: Containing 2 test samples not colonized by microbial cells, placed on the bottom of the container, completely immersed in rainwater (sterilized at a low temperature by micro-filtration); • System A1: Containing two non-colonized test samples, only dampened—by means of a sprayer—with rainwater sterilized by micro-filtration. • System B: Containing 2 colonized test samples (previously immersed in a suspension of 10^8 cells/ml of Thiobacilli and left to dry in the air), placed on the bottom of the container, entirely immersed in micro-filtered rainwater; • System B1: Containing two colonized test samples as per the previous system, only dampened with rainwater sterilized by micro-filtration; • System C: Containing 2 colonized test samples entirely immersed in micro-filtered rainwater, in which 33 g/l of Nacl are dissolved; • System C1: containing 2 colonized test samples only dampened with rainwater sterilized by micro-filtration and containing 33 g/l of NaCl.
The pH variation measurements during 48 days of experimentation are represented in Table 4.

[3] = tested on: strains of the Thiobacilli type present in a natural environment; assay: Acidification of TM medium or rainwater with sulfur powder, no inoculation (Example 4)
Text: To imitate the bacterial growth conditions in a natural environment, the same experiment as Example 1 was repeated without the inoculation of Thiobacilli.
The TM saline medium was compared with a medium consisting of rainwater sterilized at a low temperature by filtration on a membrane of cellulose nitrate (porosity 0.2 microns).
The experiment is aimed at verifying the inhibiting action of NaCl on the acidification of water rich and poor in nutrients in contact with elemental sulfur due to strains of the Thiobacilli type present in a natural environment.

[4] = tested on: Thiobacilli (consortium); assay: Effect of different salts on acidification, TM medium with sulfur powder and inoculated mixed culture (Example 7)
Procedure: The verification is aimed at discovering the effects deriving from the presence of different salts at varying concentrations on the same consortium.
A series of 12 100 ml flasks containing 50 ml of TM medium (with 0.4 g of sulfur powder), was inoculated with 1 ml of mixed culture containing 10^8 cells/ml.
• 3 control flasks containing TM and sulfur, with NaCl (0.16 M, 0.33 M, 0.56 M); • 3 flasks with TM, sulfur and Na2SO4 (0.12 M, 0.24 M, 0.56 M); • 3 flasks with TM, sulfur and KCl (0.13 M, 0.26 M, 0.56 M); • 3 flasks with TM, sulfur and KNO3 (0.09 M, 0.19 M, 0.56 M) The data collected are listed in Table 6.

[Cl-].[Na+] [NaCl, Sodium Chloride]
2.5: PH ([4]; salt 0.16 M, day 15) | PH ([4]; salt 0.16 M, day 18) | PH ([4]; salt 0.16 M, day 20) | PH ([4]; salt 0.33 M, day 20) | PH ([4]; salt 0.33 M, day 24)
1.9: PH ([4]; salt 0.33 M, day 28)
6.5: pH ([1]; day 0) | pH ([1]; day 10) | pH ([1]; day 20) | pH ([1]; day 30) | pH ([1]; day 90)
5.8: pH values in the systems ([2]; System C1: colonized samples only dampened with rainwater, day 3) | pH values in the systems ([2]; System C1: colonized samples only dampened with rainwater, day 5) | pH values in the systems ([2]; System C1: colonized samples only dampened with rainwater, day 7) | pH values in the systems ([2]; System C1: colonized samples only dampened with rainwater, day 10) | pH values in the systems ([2]; System C1: colonized samples only dampened with rainwater, day 12) | pH values in the systems ([2]; System C1: colonized samples only dampened with rainwater, day 15) | pH values in the systems ([2]; System C1: colonized samples only dampened with rainwater, day 21) | pH values in the systems ([2]; System C1: colonized samples only dampened with rainwater, day 29) | pH values in the systems ([2]; System C1: colonized samples only dampened with rainwater, day 32) | pH values in the systems ([2]; System C1: colonized samples only dampened with rainwater, day 35) | pH values in the systems ([2]; System C1: colonized samples only dampened with rainwater, day 38) | pH values in the systems ([2]; System C1: colonized samples only dampened with rainwater, day 42) | pH values in the systems ([2]; System C1: colonized samples only dampened with rainwater, day 46) | pH values in the systems ([2]; System C1: colonized samples only dampened with rainwater, day 48) | pH values in the systems ([2]; System C: colonized samples immersed in rainwater, day 7) | pH values in the systems ([2]; System C: colonized samples immersed in rainwater, day 10) | pH values in the systems ([2]; System C: colonized samples immersed in rainwater, day 12) | pH values in the systems ([2]; System C: colonized samples immersed in rainwater, day 15) | pH values in the systems ([2]; System C: colonized samples immersed in rainwater, day 21) | pH values in the systems ([2]; System C: colonized samples immersed in rainwater, day 29) | pH values in the systems ([2]; System C: colonized samples immersed in rainwater, day 32) | pH values in the systems ([2]; System C: colonized samples immersed in rainwater, day 35) | pH values in the systems ([2]; System C: colonized samples immersed in rainwater, day 38) | pH values in the systems ([2]; System C: colonized samples immersed in rainwater, day 42) | pH values in the systems ([2]; System C: colonized samples immersed in rainwater, day 46) | pH values in the systems ([2]; System C: colonized samples immersed in rainwater, day 48) | pH ([3]; Rainwater + NaCl, day 21) | pH ([3]; Rainwater + NaCl, day 23) | pH ([3]; TM Medium + NaCl, day 21) | pH ([3]; TM Medium + NaCl, day 23) | PH ([4]; salt 0.56 M, day 40)
1.7: PH ([4]; salt 0.16 M, day 28) | PH ([4]; salt 0.33 M, day 30)
1.3: PH ([4]; salt 0.16 M, day 40)
2.0: PH ([4]; salt 0.16 M, day 24)
3.5: PH ([4]; salt 0.16 M, day 6)
1.4: PH ([4]; salt 0.33 M, day 40)
6.0: pH values in the systems ([2]; System C1: colonized samples only dampened with rainwater, day 0) | pH values in the systems ([2]; System C: colonized samples immersed in rainwater, day 0) | pH values in the systems ([2]; System C: colonized samples immersed in rainwater, day 3) | pH values in the systems ([2]; System C: colonized samples immersed in rainwater, day 5) | pH ([3]; Rainwater + NaCl, day 0) | pH ([3]; Rainwater + NaCl, day 2) | pH ([3]; Rainwater + NaCl, day 4) | pH ([3]; Rainwater + NaCl, day 7) | pH ([3]; Rainwater + NaCl, day 9) | pH ([3]; Rainwater + NaCl, day 11) | pH ([3]; Rainwater + NaCl, day 14) | pH ([3]; TM Medium + NaCl, day 0) | pH ([3]; TM Medium + NaCl, day 2) | pH ([3]; TM Medium + NaCl, day 4) | pH ([3]; TM Medium + NaCl, day 7) | pH ([3]; TM Medium + NaCl, day 9) | pH ([3]; TM Medium + NaCl, day 11) | pH ([3]; TM Medium + NaCl, day 14) | PH ([4]; salt 0.16 M, day 0) | PH ([4]; salt 0.16 M, day 2) | PH ([4]; salt 0.33 M, day 0) | PH ([4]; salt 0.33 M, day 2) | PH ([4]; salt 0.56 M, day 0) | PH ([4]; salt 0.56 M, day 2) | PH ([4]; salt 0.56 M, day 6) | PH ([4]; salt 0.56 M, day 9) | PH ([4]; salt 0.56 M, day 12) | PH ([4]; salt 0.56 M, day 15) | PH ([4]; salt 0.56 M, day 18) | PH ([4]; salt 0.56 M, day 20) | PH ([4]; salt 0.56 M, day 24) | PH ([4]; salt 0.56 M, day 28) | PH ([4]; salt 0.56 M, day 30)
5.5: PH ([4]; salt 0.33 M, day 6)
5.0: PH ([4]; salt 0.33 M, day 9)
1.6: PH ([4]; salt 0.16 M, day 30)
3.0: PH ([4]; salt 0.33 M, day 12) | PH ([4]; salt 0.33 M, day 15) | PH ([4]; salt 0.33 M, day 18)
2.8: PH ([4]; salt 0.16 M, day 9) | PH ([4]; salt 0.16 M, day 12)
